From ChEMBL document CHEMBL1143699, “Chemical and biological effects of substitution of the 2-position of ring-expanded ('fat') nucleosides containing the imidazo[4,5-e][1,3]diazepine-4,8-dione ring system: the role of electronic and steric factors on glycosidic bond stability and anti-HCV activity” (Bioorg Med Chem, 2007) come the findings set out here.

Series [1] relates to Hepatitis C virus. In words: Antiviral activity against Hepatitis C virus infected Huh7 cells assessed as RNA replicon. In kind it is functional, Hepacivirus hominis, Huh-7. A general note: In antiviral work, replicon cells carry a viral genome segment that copies itself.
The nature of series [2]: Cytotoxicity against Huh7 cells relative to control. In kind it is cell-based. As to conditions: human, huh-7.

For the compound `COc1ccc(-c2nc3c(=O)nc(N)[nH]c(=O)c3n2[C@@H]2O[C@H](CO)[C@@H](O)[C@H]2O)cc1`, the Inhibition (usually the relative decrease from the control value, in per cent) in series [1] was determined as 9.5%. Further, the Activity in series [2] was 109.8%.

Turning to `COc1cccc(-c2nc3c(=O)nc(N)[nH]c(=O)c3n2[C@@H]2O[C@H](CO)[C@@H](O)[C@H]2O)c1`, the Inhibition in series [1] came to 31.8%. In addition, the Activity in series [2] is 97.2%.

Turning to `Nc1nc(=O)c2nc(-c3ccc(F)cc3)n([C@@H]3O[C@H](CO)[C@@H](O)[C@H]3O)c2c(=O)[nH]1`, the Inhibition in series [1] stood at 0%. Also, the Activity in series [2] is 108.6%.
